Experimental data published in publication PMC12249711, “Comprehensive Evaluation of 1H-Isoindole-1,3(2H)-Dione Derivatives: Pharmacokinetic Studies and Analgesic Potential in Various Pain Models” (International Journal of Molecular Sciences, 2025).

Legend:
[1] = system: rats; assay: Carrageenan-induced paw edema (plethysmometer); assay type: in vivo, Wistar rats; details: for Change in Edema Volume: mean ± SEM, rats; for Reduction in edema volume: vs control
Experimental: The acute and local inflammation and paw edema was induced by intraplantar (i.pl.) injection of 0.1 mL of 1% carrageenan solution in PBS into the rat’s right hind paw, according to the modified method of Winter and Lence, as described previously; (n = 84). […] Vehicle (1% Tween 80) was administered by the same route as the tested compounds.

[2] = system: mice; assay: Glutamate-induced pain test; assay type: in vivo, Albino Swiss mice; details: vs vehicle
Experimental: Prior to the experimental procedure, individual mice were acclimatized in an observation chamber (n = 128). Thirty minutes before the test, the compounds under investigation were administered intraperitoneally (i.p.). A volume of 20 μL of a glutamate solution, containing 30 μmol per mouse paw, was subcutaneously injected into the ventral surface of the right hind paw to induce a pain response. Glutamate-induced nociception was assessed 15 min post-injection. The duration of time spent licking the injected paw was recorded using a chronometer and was interpreted as an indicator of nociception.

[3] = system: mice; assay: Streptozotocin-induced diabetic neuropathy, hot plate test (thermal hyperalgesia); assay type: in vivo, Albino Swiss mice; details: diabetic (STZ) mice, 10 mg/kg i.p.; for Analgesic activity (hot plate): vs pre-drug latency
Experimental: (§1) The induction of diabetes neuropathy in mice was achieved through the administration of streptozotocin (STZ), dissolved in PBS at a dose of 200 mg/kg in a constant volume of 0.1 mL/10 g of mouse body weight, intraperitoneally; (n = 50). Blood glucose levels were measured immediately prior to the administration of streptozotocin and 14 and 21 days following this administration in order to confirm the presence of hyperglycemia. For this purpose, 5 µL of blood was drawn from the tail vein of the mice using a strip glucose meter (AccuChek Active, Roche, Boulogne-Billancourt, France).
To assess increased sensitivity to thermal stimuli, we used a hot plate testing apparatus (Panlab/Harvard Apparatus, Cornellà de Llobregat, Spain), following the methodology originally described by. In this procedure, after determining the baseline pain response time, 30 min after drug administration, mice were placed on a hot plate maintained at 55 °C and monitored for pain-related behaviors such as licking their hind paws or jumping. To avoid potential damage to paw tissue, a time limit of 45 s was set.

[4] = system: mice; assay: Oxaliplatin-induced neuropathic pain, von Frey test (tactile allodynia); assay type: in vivo, Albino Swiss mice; details: 10 mg/kg i.p.
Experimental: (§2) Furthermore, to assess the response to mechanical stimuli (i.e., tactile/mechanical) allodynia), the von Frey test was carried out with application of the electronic von Frey unit (Panlab, Cornellà de Llobregat, Spain) equipped with a fiber, the distal end of which was applied to the right hind paw of the mouse. The device automatically recorded the pressure force (in grams) applied until the paw withdrawal response occurred. In the absence of pain, an increase in the pressure value was observed. The force at which the animal withdrew its paw was considered the pain threshold for the mechanical stimulus. Measurements were taken before streptozotocin administration (in normoglycemic mice) and again 21 days later, both before and after compound administration, in diabetic mice (glucose level > 300 mg/dL) that had developed mechanical allodynia. On the day of the experiment, each mouse was placed in an observation chamber with a wire mesh bottom and was allowed to habituate for 1 h. After the habituation period, in order to obtain baseline values, each mouse was tested 3 times alternately in each hind paw, allowing at least 30 s between each measurement. Then, the mice were pretreated intraperitoneally with compound or vehicle, and 30 min later the animals were tested again and three measurements were taken, the mean of which was calculated to obtain the mean values after drug administration for each mouse. The anti-allodynic effect was defined as an increase in the pressure force value required to elicit a pain response, compared to the control group.
To assess the response to mechanical stimuli (i.e., tactile/mechanical allodynia), the von Frey test was performed using an electronic von Frey device (Bioseb, Vitrolles, France), as described in Section 4.4.5. In this assay, measurements were taken before and 3 h after oxaliplatin administration, as well as 7 days later. […] A total of 30 min after administration, the assessment was repeated using the same procedure.

[5] = system: mice; assay: Streptozotocin-induced diabetic neuropathy, von Frey test (tactile allodynia); assay type: in vivo, Albino Swiss mice; details: diabetic (STZ) mice, 10 mg/kg i.p.; for Pain threshold after compound administration (von Frey): 30 min before the test; for Analgesic activity (von Frey): vs pre-drug threshold
Experimental: as §1, §2

[6] = 10 mg/kg i.p., 1 h after carrageenan
[7] = 10 mg/kg i.p., 2 h after carrageenan
[8] = 10 mg/kg i.p., 3 h after carrageenan
[9] = 20 mg/kg i.p., 1 h after carrageenan
[10] = 20 mg/kg i.p., 2 h after carrageenan
[11] = 20 mg/kg i.p., 3 h after carrageenan
[12] = early phase, 3 h after oxaliplatin
[13] = late phase, 7 days after oxaliplatin

Structure (SMILES) | Change in Edema Volume [1, 6] | Change in Edema Volume [1, 7] | Change in Edema Volume [1, 8] | Reduction in edema volume ([1]; 10 mg/kg, 2 h) | Reduction in edema volume ([1]; 10 mg/kg, 3 h) | Change in Edema Volume [1, 9] | Change in Edema Volume [1, 10] | Change in Edema Volume [1, 11] | Reduction in edema volume ([1]; 20 mg/kg, 2 h) | Reduction in edema volume ([1]; 20 mg/kg, 3 h) | Reduction of glutamate-induced pain reaction ([2]; 10 mg/kg i.p.) | Reduction of glutamate-induced pain reaction ([2]; 20 mg/kg i.p.) | Pain response latency time after compound administration (hot plate, 55 °C) [3] | Analgesic activity (hot plate) [3] | Analgesic activity (von Frey) [4, 12] | Pain threshold after compound administration (von Frey) [4, 12] | Analgesic activity (von Frey) [4, 13] | Pain threshold after compound administration (von Frey) [4, 13] | Pain threshold after compound administration (von Frey) [5] | Analgesic activity (von Frey) [5] | also measured
O=C1c2ccccc2C(=O)N1CC(O)CN1CCN(c2ccccc2)CC1 (stereo not shown) [Compound F1] | 1.14 ± 0.05 mL | 1.51 ± 0.09 mL | 1.67 ± 0.09 mL | 17.5% | 17% | 1.09 ± 0.02 mL | 1.15 ± 0.07 mL | 1.55 ± 0.09 mL | 37.2% | 22.1% | 82.3% | 87.2% | 25.59 ± 1.84 s | 56.6% | 60.7% | 3.39 ± 0.46 g | 35% | 3.9 ± 0.34 g | 4.28 ± 0.32 g | 48.6% | Reduction in edema volume ([1]; 10 mg/kg, 1 h): 27.8%; Reduction of glutamate-induced pain reaction ([2]; 5 mg/kg i.p.): 41.3%
O=C1c2ccccc2C(=O)N1CC(O)CN1CCN(c2cccc(C(F)(F)F)c2)CC1 (stereo not shown) [Compound F3] | 1.37 ± 0.04 ns mL | 1.70 ± 0.04 ns mL | 1.89 ± 0.03 mL |  | 9.5% | 1.14 ± 0.05 mL | 1.47 ± 0.07 mL | 1.67 ± 0.06 mL | 19.2% | 20.1% | 61% | 70% | 24.24 ± 1.46 s | 42.92% | 82.9% | 3.53 ± 0.08 g | 37.59% | 3.99 g | 5.21 ± 0.32 g | 81.13% | Reduction in edema volume ([1]; 20 mg/kg, 1 h): 16.8%
O=C1c2ccccc2C(=O)N1CC(O)CN1CCN(C(c2ccccc2)c2ccccc2)CC1 (stereo not shown) [Compound F4] | 1.37 ± 0.04 mL | 1.56 ± 0.06 mL | 1.85 ± 0.04 mL | 17% | 15.5% | 1.23 ± 0.01 mL | 1.47 ± 0.05 mL | 1.73 ± 0.02 mL | 21.8% | 21% |  | 53.7% | did not affect the latency time |  | 76.2% | 3.56 ± 0.32 g | 24.39% | 3.57 ± 0.33 g | 3.98 ± 0.23 g | 38.29% | Reduction in edema volume ([1]; 10 mg/kg, 1 h): 8.7%; Reduction in edema volume ([1]; 20 mg/kg, 1 h): 18%
COc1ccccc1N1CCN(CC(O)CN2C(=O)c3ccccc3C2=O)CC1 (stereo not shown) [Compound F2] | 1.51 ± 0.04 ns mL | 1.82 ± 0.03 mL | 1.99 ± 0.02 ns mL | approximately 9% |  | 1.15 ± 0.08 mL | 1.63 ± 0.04 mL | 1.91± 0.03 ns mL | 17.7% |  | 62.9% | 68.7% | 30.36 s | 49.33% | 81% | 3.91 ± 0.29 g | 45.45% | 4.0 ± 0.34 g | 4.58 ± 0.29 g | 39.4% | Reduction in edema volume ([1]; 20 mg/kg, 1 h): 26.8%; Reduction of glutamate-induced pain reaction ([2]; 5 mg/kg i.p.): 54.3%
